From patent publication US9145405B2, “Oxadiazole compound and preparation method thereof, pharmaceutical composition and use thereof” (SHANGHAI JIAO TONG UNIVERSITY, priority 2011, dated 2015)
In brackets after ≈: the same amount, converted by molar mass. Where two headings read alike, the source gives them in different places.

Key:
Cox_B3 virus = experiment: Anti-Cox_B3 test: inhibition of cytopathic effect (CPE) in infected Vero cells, Reed-Muench; format: cell-based; details: for IC50: read-out: IC50 (half-inhibitory concentration for viruses)
Source text: The present examples verifies experimental results of anti-Cox_B3 of the compounds 1-137of the present invention, Pleconaril, 3-[3,5-dimethyl-4-[5-(3-methy-1,2-oxazolyl)propoxy]phenyl]-5-(trifluonomethyl) -1,2,4-oxadiazole is used as positive control.

Vero cells = experiment: Toxicity (half toxic concentration) in the anti-Cox_B3 test on Vero cells; format: cell-based
[1] = Cox_B3 virus in Vero cells, CPE, Reed-Muench method

Compound	IC50 (Cox_B3 virus; [1]) [µg/mL]	TC50 (half of the toxic concentration) (Vero cells; Vero cells, Cox_B3) [µg/mL]	IC50 (Cox_B3 virus; Vero) [µg/mL]	IC50 (half-inhibitory concentration for viruses) (Cox_B3 virus; [1]) [µg/mL]	TC50 (half of the toxic concentration) (Vero cells) [µg/mL]
Cc1cc(-c2noc(C(F)(F)F)n2)cc(C)c1OCCOc1ncc(-c2noc(C(F)(F)F)n2)cc1F [Compound 116, 2-[2-[2,6-dimethyl-4-[5-(trifluoromethyl)-1,2,4-oxadiazole-3-yl]phenoxyl]ethoxyl]-3-fluoro-5-[5-(trifluoromethyl)-1,2,4-oxadiazole-3-yl]-pyridine]	0.034 (≈ 0.0637 µM)	39.21			
Cc1cc(-c2noc(C(F)(F)F)n2)cc(C)c1OCCCOC1CCC(C)C(C)C1 (centres unmarked) [Compound 129, 3-[4-[3-[3,4-dimethylcyclohexyloxy]propoxy]-3,5-dimethylphenyl]-5-(trifluoromethyl)-1,2,4-oxadiazole]		35.46	0.025 (≈ 0.0586 µM)		
6-[2,6-dimethyl-4-[(5-(trifluoromethyl)-1,2,4-oxadiazole-3-yl)phenoxyl]ethoxyl]-5-trifluoromethylpyridine [Compound 52]				0.13	41.28
3-[2-(2,6-dimethyl-4-[(5-(trifluoromethyl)-1,2,4-oxadiazole-3-yl)phenoxyl]ethoxyl]-2-formamide-6-fluoropyrazine [Compound 55]		36.66		0.16	
Cc1nnc(OCCOc2c(C)cc(-c3noc(C(F)(F)F)n3)cc2C)[nH]1 [Compound 24, 3-[2-[2,6-dimethyl-4-[5-(trifluoromethyl)-1,2,4-oxadiazole-3-yl]phenoxyl]ethoxyl]-5-methyl-4H-1,2,4-triazole]	0.03 (≈ 0.0783 µM)	42.23			
Cc1cc(-c2noc(C(F)(F)F)n2)cc(C)c1OCCCOc1ccc(-c2noc(C(F)(F)F)n2)cc1 [Compound 118, 3-[3,5-dimethyl-4-[3-[4-[5-(trifluoromethyl)-1,2,4-oxadiazole-3-yl]phenoxyl]propoxy]phenyl]-5-(trifluoromethyl)-1,2,4-oxadiazole]	0.048 (≈ 0.0908 µM)	37.21			
Cc1cc(OCCCOc2c(C)cc(-c3noc(C(F)(F)F)n3)cc2C)on1 [Compound 8, 3-[3,5-dimethyl-4-[3-(3-methylisoxazole-5-oxy)propoxy]phenyl]-5-(trifluoromethyl)-1,2,4-oxadiazole]	0.021 (≈ 0.0528 µM)	52.38			
6-[2,6-dimethyl-4-[(5-(trifluoromethyl)-1,2,4-oxadiazole-3-yl)phenoxyl]ethoxyl]-5-fluoro-2-hydroxy-3-cyanopyridine [Compound 102]				0.10	36.28
COC(=O)c1cc(OCCCOc2c(C)cc(-c3noc(C(F)(F)F)n3)cc2C)no1 [Compound 7, 3-[3-[2,6-dimethyl-4-[5-(trifluoromethyl)-1,2,4-oxadiazole-3-yl]phenoxyl]propoxy]-isoxazole-5-carboxylate]				0.24	36.48
Cc1cc(-c2noc(C(F)(F)F)n2)cc(C)c1OCCCOc1ccc(-c2noc(C(F)(F)F)n2)nn1 [Compound 137, 3-[5-(trifluoromethyl)-1,2,4-oxadiazole-3-yl]-6-[3-[2,6-dimethyl-4-[5-(trifluoromethyl)-1,2,4-oxadiazole-3-yl]phenoxyl]propoxy]pyridazine]	0.039 (≈ 0.0735 µM)	41.65			
Cc1cc(-c2noc(C(F)(F)F)n2)cc(C)c1OCCCOc1ccc(C#N)nn1 [Compound 133, 3-cyano-6-[3-[2,6-dimethyl-4-[5-(trifluoromethyl)-1,2,4-oxadiazole-3-yl]phenoxyl]propoxy]pyridazine]	0.041 (≈ 0.0978 µM)	38.78			
Cc1cc(-c2noc(C(F)(F)F)n2)cc(C)c1OCCOc1cc(C(F)(F)F)nn1C [Compound 16, 3-[3,5-dimethyl-4-[2-[1-methyl-3-(trifluoromethyl)-1H-pyrazole-5-oxy]ethoxyl]phenyl]-5-(trifluoromethyl)-1,2,4-oxadiazole]	0.09 (≈ 0.2 µM)	41.38			
6-[2,6-dimethyl-4-[(5-(trifluoromethyl)-1,2,4-oxadiazole-3-yl)phenoxyl]ethoxyl]-5-fluoro-3-cyanopyridine [Compound 100]				0.069	38.63
6-[2,6-dimethyl-4-[(5-(trifluoromethyl)-1,2,4-oxadiazole-3-yl)phenoxyl]ethoxyl]-3-cyanopyridine [Compound 50]				0.087	36.88
Cc1cc(-c2noc(C(F)(F)F)n2)cc(C)c1OCCOc1ccc(-c2noc(C(F)(F)F)n2)cn1 [Compound 114, 2-[2-[2,6-dimethyl-4-[5-(trifluoromethyl)-1,2,4-oxadiazole-3-yl]phenoxyl]ethoxyl]-5-[5-(trifluoromethyl)-1,2,4-oxadiazole-3-yl]-pyridine]	0.038 (≈ 0.0737 µM)	36.32			
Cc1nnc(OCCOc2c(C)cc(-c3noc(C(F)(F)F)n3)cc2C)o1 [Compound 28, 3-[3,5-dimethyl-4-[2-[5-methyl-1,3,4-oxadiazole-2-oxy]ethoxyl]phenyl]-5-(trifluoromethyl)-1,2,4-oxadiazole]	0.11 (≈ 0.286 µM)	32.36			
3-[3,5-dimethyl-4-[(2-(cyclohexyloxy)-ethoxyl)phenyl]-5-(trifluoromethyl)-1,2,4-oxadiazole [Compound 35]		36.78		0.08	
Cc1cc(-c2noc(C(F)(F)F)n2)cc(C)c1OCCOc1ccc(-c2noc(C(F)(F)F)n2)cc1 [Compound 112, 3-[3,5-dimethyl-4-[2-[4-[5-(trifluoromethyl)-1,2,4-oxadiazole-3-yl]phenoxyl]ethoxyl]phenyl]-5-(trifluoromethyl)-1,2,4-oxadiazole]	0.032 (≈ 0.0622 µM)	34.98			
Cc1csc(OCCOc2c(C)cc(-c3noc(C(F)(F)F)n3)cc2C)n1 [Compound 13, 3-[3,5-dimethyl-4-[2-(4-methylthiazole-2-oxy)ethoxyl]phenyl]-5-(trifluoromethyl)-1,2,4-oxadiazole]	0.15 (≈ 0.376 µM)	38.68			
Cc1nc(-c2ccc(OCCOc3c(C)cc(-c4noc(C(F)(F)F)n4)cc3C)cc2)no1 [Compound 111, 3-[3,5-dimethyl-4-[2-[4-(5-methyl-1,2,4-oxadiazole-3-yl)phenoxyl]ethoxyl]phenyl]-5-(trifluoromethyl)-1,2,4-oxadiazole]	0.051 (≈ 0.111 µM)	38.21			
Cc1cc(-c2noc(C(F)(F)F)n2)cc(C)c1OCCOc1c(Cl)cccc1Cl [Compound 42, 3-[3,5-dimethyl-4-[(2,6-dichlorophenoxyl)ethoxyl]phenyl]-5-(trifluoromethyl)-1,2,4-oxadiazole]	0.033 (≈ 0.0738 µM)	36.89			
Cc1cc(-c2noc(C(F)(F)F)n2)cc(C)c1OCCOc1ccc([N+](=O)[O-])cc1F [Compound 41, 3-[3,5-dimethyl-4-[(2-fluoro-4-nitrophenoxyl)ethoxyl]phenyl]-5-(trifluoromethyl)-1,2,4-oxadiazole]	0.033 (≈ 0.0748 µM)	46.89			
